Assay results as given in paper PMC9995496, “A screen for MeCP2-TBL1 interaction inhibitors using a luminescence-based assay” (Scientific Reports, 2023).
Structures can show the parent of a compound that is named as a salt. Where two headings read alike, the source gives them in different places.

System: PRKACA-PRKAR2A interaction (SmBiT-PRKACA / LgBiT-PRKAR2A), protein kinase A
Parameters: NanoLuc complementation counter-screen in cell extract, PRKACA with PRKAR2A, loss of luminescence, detects NanoLuc interference
Settings: counter-screen for NanoLuc interference, 0.5 h, 20 µM, inhibitor

| Structure (SMILES) | Inh (PKA) (Inh (PKA)) [%] | Inh (PKA) [%] |
| --- | --- | --- |
| C[C@@H]1CCN(C(=O)CC#N)C[C@@H]1N(C)c1ncnc2[nH]ccc12 [UM0141728:01, Tofacitinib (CP-690550) Citrate] | -4.37 | – |
| C[C@H](NC(=O)/C(C#N)=C/c1cccc(Br)n1)c1ccccc1 [UM0141729:01, WP1066] | – | 28.21 |
| Cc1cnc(Nc2ccc(N3CCN(C)CC3)cc2)nc1Nc1cccc(S(=O)(=O)NC(C)(C)C)c1 [UM0141731:01, TG101209] | – | 36.26 |
| CN1CCN(c2cccc(Nc3nc4c(-c5ccc(S(C)(=O)=O)cc5)cccn4n3)c2)CC1 [UM0141732:01, CEP-33779] | – | 32.81 |
| CCn1c(C(=O)N(C2CC2)C2CC2)cc2c3c(ncn3C)c(Nc3cc(C)n(C)n3)nc21 [UM0141734:01, BMS-911543] | – | 4.215 |
| Cn1ncnc1[C@H]1c2n[nH]c(=O)c3cc(F)cc(c23)N[C@@H]1c1ccc(F)cc1 [UM0141735:01, BMN 673] | – | 5.771 |
| NC(=O)c1ccc(I)c([N+](=O)[O-])c1 [UM0141736:01, Iniparib (BSI-201)] | – | 1.39 |
| CN(C)Cc1ccc(-c2nc3cccc4c3n2CCNC4=O)cc1 [UM0141737:01, AG-14361] | – | 2.033 |
| CN(C)CC(=O)Nc1ccc2[nH]c(=O)c3ccccc3c2c1 [UM0141738:01, PJ34 hydrochloride] | – | 3.156 |
| NC(=O)c1cccc2[nH]c(-c3ccc([C@@H]4CCCN4)cc3F)nc12 [UM0141739:01, A-966492] | – | 5.639 |
| O=C(COc1cccc2c(=O)[nH]ccc12)c1ccccc1 [UM0141740:01, UPF 1069] | – | 15.76 |
| COC1CCN(C(=O)c2cc(Cc3n[nH]c(=O)c4ccccc34)ccc2F)CC1 [UM0141741:01, AZD2461] | – | 1.514 |
| CC(C)N(CCCNC(=O)Nc1ccc(C(C)(C)C)cc1)C[C@H]1O[C@@H](n2cc(Br)c3c(N)ncnc32)[C@H](O)[C@@H]1O [UM0141743:01, SGC 0946] | – | 3.83 |
| CCN(CC)C(=O)/C(C#N)=C/c1cc(O)c(O)c([N+](=O)[O-])c1 [UM0141744:01, Entacapone] | – | 34.9 |
| CC(C)N(CCCNC(=O)Nc1ccc(C(C)(C)C)cc1)C[C@H]1O[C@@H](n2ccc3c(N)ncnc32)[C@H](O)[C@@H]1O [UM0141745:01, EPZ004777] | – | 1.222 |
| Cc1cc(C)c(CNC(=O)c2cc(-c3ccc(CN4CCOCC4)cc3)cc3c2cnn3C2CCCC2)c(=O)[nH]1 [UM0141746:01, EPZ005687] | – | 11.88 |
| Nc1nc2[nH]cnc2c(=S)[nH]1 [UM0141747:01, Thioguanine] | – | 3.135 |
| CC(NC(=O)c1ccccc1/N=C/c1c(O)ccc2ccccc12)c1ccccc1 (stereo not drawn) [UM0141749:01, Sirtinol] | – | 11.59 |
| COc1ccccc1S(=O)(=O)Nc1ccc2c(c1)CN(C)C(=O)N2 [UM0141750:01, PFI-1 (PF-6405761)] | – | 3.719 |
| CCOC(=O)Nc1cc(-c2ccc(C)c(NS(C)(=O)=O)c2)nn2c(C)nnc12 [UM0141751:01, Bromosporine] | – | 9.043 |
| Cc1nc(C(=O)NCC(=O)O)c(O)c2ccc(Oc3ccccc3)cc12 [UM0141752:01, FG-4592 (ASP1517)] | – | 9.511 |
| O=C(O)CNC(=O)c1c(O)c2ccccc2n(Cc2ccccc2)c1=O [UM0141753:01, IOX2(Glycine)] | – | 18.92 |

| Structure (SMILES) | Inh (PKA) (Inh (PKA)) [%] | Inh (PKA) [%] |
| --- | --- | --- |
| CCOC(=O)CCNc1cc(N2CCc3ccccc3CC2)nc(-c2ccccn2)n1 [UM0141754:01, GSK J4 HCl] | – | 11.33 |
| O=C(O)CCNc1cc(N2CCc3ccccc3CC2)nc(-c2ccccn2)n1 [UM0141755:01, GSK J1] | – | 1.8 |
| CN1CCC(CNc2ccc3ncc(-c4cccc(OC(F)(F)F)c4)n3n2)CC1 [UM0141756:01, SGI-1776 free base] | – | 32.18 |
| O=C1NC(=O)/C(=C/c2cccc(C(F)(F)F)c2)S1 [UM0141757:01, SMI-4a] | – | 63.38 |
| COC1=CC(c2cc3ccccc3[nH]2)=N/C1=C\c1[nH]c(C)cc1C [UM0141758:01, Obatoclax mesylate (GX15-070)] | – | 43.77 |
| Cc1cc2c(C(=O)NC[C@H](C)c3ccccc3)c(O)c(O)cc2c(O)c1-c1c(C)cc2c(C(=O)NC[C@H](C)c3ccccc3)c(O)c(O)cc2c1O [UM0141759:01, Sabutoclax] | – | 12.84 |
| OCc1ccc(-c2ccc(-c3ccc(CO)s3)o2)s1 [UM0141761:01, RITA (NSC 652287)] | – | 10.18 |
| C/C(=N\NC(=S)N1CCC1)c1ccccn1 [UM0141763:01, NSC 319726] | – | 3.72 |
| Nc1cccc2c1C(=O)N(C1CCC(=O)NC1=O)C2=O (stereo not drawn) [UM0141764:01, Pomalidomide (CC-4047)] | – | 2.798 |
| CN1C(=O)C(Cc2c[nH]c3ccccc23)NC1=S (stereo not drawn) [UM0141765:01, Necrostatin-1] | – | 5.445 |
| O=C1CCC(N2C(=O)c3ccccc3C2=O)C(=O)N1 (stereo not drawn) [UM0141766:01, Thalidomide] | – | -0.2984 |
| COCC[n+]1c2c(n(Cc3cnccn3)c1C)C(=O)c1ccccc1C2=O [UM0141767:01, YM155] | – | 0.9715 |
| COc1ccc(C2=N[C@@H](c3ccc(Cl)cc3)[C@@H](c3ccc(Cl)cc3)N2C(=O)N2CCNC(=O)C2)c(OC(C)C)c1 [UM0141768:01, Nutlin-3] | – | 1.968 |
| CC(C)c1ccccc1Cc1cc(C(=O)Nc2ccc(S(=O)(=O)c3ccccc3C(C)(C)C)cc2)c(O)c(O)c1O [UM0141770:01, TW-37] | – | 2.732 |
| S=C(NCc1ccc2c(c1)OCO2)N1CCN(c2ncnc3c2oc2ccccc23)CC1 [UM0141771:01, Amuvatinib (MP-470, HPK 56)] | – | 7.726 |
| C[C@]12CC[C@H](O)CC1=CC[C@@H]1[C@@H]2CC[C@]2(C)C(c3cccnc3)=CC[C@@H]12 [UM0141772:01, Abiraterone] | – | 5.429 |
| O=C(Nc1ccncc1)c1cc([N+](=O)[O-])ccc1Cl [UM0141773:01, T0070907] | – | 6.091 |
| Cc1cccc(Nc2cc(Cl)nc(SCC(=O)O)n2)c1C [UM0141774:01, WY-14643 (Pirinixic Acid)] | – | 22.49 |
| Cc1cc(SCc2sc(-c3ccc(C(F)(F)F)c(F)c3)nc2C)ccc1OCC(=O)O [UM0141775:01, GW0742] | – | 20.87 |
| CC(C)c1nc(CN(C)C(=O)N[C@@H](CCN2CCOCC2)C(=O)N[C@H](CC[C@H](Cc2ccccc2)NC(=O)OCc2cncs2)Cc2ccccc2)cs1 [UM0141776:01, Cobicistat (GS-9350)] | – | 4.362 |
| CCOc1cc([C@@H](CS(C)(=O)=O)N2C(=O)c3cccc(NC(C)=O)c3C2=O)ccc1OC [UM0141777:01, Apremilast (CC-10004)] | – | 1.324 |
| CC(C)c1cc(C(C)C)c(CC(=O)NS(=O)(=O)Oc2c(C(C)C)cccc2C(C)C)c(C(C)C)c1 [UM0141778:01, Avasimibe] | – | 69.24 |

| Structure (SMILES) | Inh (PKA) (Inh (PKA)) [%] | Inh (PKA) [%] |
| --- | --- | --- |
| O=C(Nc1c(Cl)cncc1Cl)c1ccc(OC(F)F)c(OCC2CC2)c1 [UM0141779:01, Roflumilast] | – | 21.52 |
| C[C@@H](c1ncncc1F)[C@](O)(Cn1cncn1)c1ccc(F)cc1F [UM0141780:01, Voriconazole] | – | 0.951 |
| CCCc1nn(C)c2c(=O)[nH]c(-c3cc(S(=O)(=O)N4CCN(C)CC4)ccc3OCC)nc12 [UM0141781:01, Sildenafil Citrate] | 4.187 | – |
| CCCc1nc(C)c2c(O)nc(-c3cc(S(=O)(=O)N4CCN(CC)CC4)ccc3OCC)nn12 [UM0141782:01, Vardenafil HCl Trihydrate] | – | 3.783 |
| CCc1ccc(CCOc2ccc(CC3SC(=O)NC3=O)cc2)nc1 (stereo not drawn) [UM0141783:01, Pioglitazone HCl] | – | 13.53 |
| Cn1cc(-c2ccncc2)c(-c2ccc(OCc3ccc4ccccc4n3)cc2)n1 [UM0141784:01, PF-2545920] | – | 39.54 |
| CNC(=O)c1ccc2cc([C@@]3(O)CCn4cncc43)ccc2c1 [UM0141785:01, TAK-700 (Orteronel)] | – | 0.0216 |
| COc1ccc(C2CNC(=O)C2)cc1OC1CCCC1 (stereo not drawn) [UM0141786:01, Rolipram] | – | -0.06153 |
| COc1ccc([C@H]2CNC(=O)C2)cc1OC1CCCC1 [UM0141786:02, S- (+)-Rolipram] | – | 3.135 |
| COc1ccc([C@]2(C#N)CC[C@@H](C(=O)O)CC2)cc1OC1CCCC1 [UM0141787:01, Cilomilast] | – | 0.1397 |
| COc1cccc(Nc2c(C(N)=O)cnc3c(C)cc(S(=O)(=O)c4cccc(C(=O)N(C)C)c4)cc23)c1 [UM0141788:01, GSK256066] | – | 11.7 |
| NCc1c[nH]c(=S)n1[C@H]1CCc2c(F)cc(F)cc2C1 [UM0141789:01, Nepicastat (SYN-117) HCl] | – | 5.542 |
| O=C(O)CCCCC(CCSCc1ccccc1)SCc1ccccc1 (stereo not drawn) [UM0141790:01, CPI-613] | – | 31.69 |
| COc1ccc(CNc2nc(N3CCC[C@H]3CO)ncc2C(=O)NCc2ncccn2)cc1Cl [UM0141791:01, Avanafil] | – | 18.48 |
| COc1c(C)c2c(c(O)c1C/C=C(\C)CCC(=O)OCCN1CCOCC1)C(=O)OC2 [UM0141793:01, Mycophenolate Mofetil] | – | 3.705 |
| O=C(NC[C@H]1CN(c2ccc(N3CCOCC3=O)cc2)C(=O)O1)c1ccc(Cl)s1 [UM0141794:01, Rivaroxaban] | – | 3.84 |
| Cc1ccccc1C(C(=O)NC1CCCCC1)N(C(=O)Cn1ccnc1C)c1cccc(F)c1 (stereo not drawn) [UM0141795:01, AGI-5198] | – | 4.354 |
| COc1ccc(-c2nc3cc(C4=NNC(=O)CC4C)ccc3[nH]2)cc1 (stereo not drawn) [UM0141796:01, Pimobendan] | – | 10.77 |
| COc1ccc(-n2nc(C(N)=O)c3c2C(=O)N(c2ccc(N4CCCCC4=O)cc2)CC3)cc1 [UM0141797:01, Apixaban] | – | 1.88 |
| Oc1cc(O)c(Cl)cn1 [UM0141798:01, Gimeracil] | – | 0.03154 |
| O=C(O)/C=C/c1ccc(Cn2ccnc2)cc1 [UM0141799:01, Ozagrel] | 1.747 | – |
| O=C(O)Cn1nnc(-c2cc(N3CCC(Oc4cc(F)ccc4Br)CC3)no2)n1 [UM0141800:01, MK-8245] | – | 15.63 |
